Measurements published in patent US7960543B2, “Nucleoside or nucleotide derivative and use thereof” (RIKEN, priority 2004, dated 2011).
Values joined by “and” are separate entries in the source; they are usually repeats but may differ in a detail not shown here. Equal entries are not always repeated. Where two headings read alike, the source gives them in different places.

Key:
[1] = for Quantum yield: pH 7.0 aqueous solution, standard fluorescein in 0.1 N NaOH, φs=0.90; for Emission maxima: excited at the wavelength printed in the cell (493, 553 or 320 nm), pH 7.0, 25° C.
Description: A 3×3 mm cell was used for measurement, and the following settings were used to measure each spectrum: response 1.0 s, sensitivity low, and slit width fixed at 3 nm for both excitation and fluorescence sides.
The quantum yield (φ) was calculated according to the following equation and fluorescein (1.0 μM in 0.1 N NaOH, φs=0.90) was used as a standard. φ=(F·As·η^2·φs)/(A·Fs·η0^2)
F: Area of each fluorescence spectrum
A: Absorbance at the excitation wavelength
η: Refractive index (water: 1.33)

T7 RNA polymerase [2] = biological target: T1, T7 RNA polymerase (Escherichia phage T7, UniProt P00573); details: compared to transcription using the natural template and substrates only; 1 mM modified yTP, 37° C., 3 hours
T1 sequence (P00573 whole entry): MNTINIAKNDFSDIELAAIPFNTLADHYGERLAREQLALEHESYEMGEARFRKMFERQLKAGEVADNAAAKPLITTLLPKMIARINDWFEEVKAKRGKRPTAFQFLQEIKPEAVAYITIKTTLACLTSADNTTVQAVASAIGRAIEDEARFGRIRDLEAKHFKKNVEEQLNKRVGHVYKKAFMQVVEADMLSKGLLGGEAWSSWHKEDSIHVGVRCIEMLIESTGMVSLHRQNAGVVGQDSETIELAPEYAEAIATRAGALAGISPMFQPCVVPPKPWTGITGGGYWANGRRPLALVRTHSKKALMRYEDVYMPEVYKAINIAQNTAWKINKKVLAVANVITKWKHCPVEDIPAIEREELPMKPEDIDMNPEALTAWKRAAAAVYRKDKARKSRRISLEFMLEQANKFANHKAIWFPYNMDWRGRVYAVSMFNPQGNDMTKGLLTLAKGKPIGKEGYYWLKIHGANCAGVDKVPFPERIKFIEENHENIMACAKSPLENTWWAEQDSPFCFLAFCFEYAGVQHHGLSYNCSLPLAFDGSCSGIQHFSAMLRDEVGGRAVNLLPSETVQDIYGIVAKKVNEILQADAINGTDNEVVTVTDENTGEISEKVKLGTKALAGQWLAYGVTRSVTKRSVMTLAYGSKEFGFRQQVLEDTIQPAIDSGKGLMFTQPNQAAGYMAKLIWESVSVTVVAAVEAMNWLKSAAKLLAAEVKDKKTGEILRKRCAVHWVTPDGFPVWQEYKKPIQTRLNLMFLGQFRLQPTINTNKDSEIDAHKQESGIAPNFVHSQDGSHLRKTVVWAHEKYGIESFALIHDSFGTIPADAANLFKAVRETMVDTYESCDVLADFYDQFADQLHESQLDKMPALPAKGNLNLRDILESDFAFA
Description: More specifically, double-stranded template DNA (10 μM) was annealed in 10 mM Tris-HCl buffer (pH 7.6) containing 10 mM NaCl under the following conditions: 95° C. for 3 minutes→50° C. for 3 minutes→slow cooling to 4° C. T7 transcription reaction was accomplished in a reaction solution (20 μl) containing 40 mM Tris-HCl buffer (pH 8.0), 24 mM MgCl2, 2 mM spermidine, 5 mM DTT, 0.01% Triton X-100, 2 μCi [y-^32P]GTP, 1 mM NTPs, 1 mM modified yTP, 2 μM template DNA, and 50 units of T7 RNA polymerase (Takara).
The template DNA used was a duplex formed between T7 promoter-containing 35-mer template strand and T7 promoter non-template strand 21-mer, which has been modified to have s or v introduced at a single position within the template.
where N(5)=v (the present invention), s (the present invention) or A (control)
where N′(13)=NH2-y, FAM-y or TAMRA-y
The modified substrate was added in the same amount as the natural substrates and reacted at 37° C. for 3 hours, followed by addition of an electrophoresis dye solution (20 μl) containing 10 M urea to stop the reaction. The reaction solution was heated at 75° C. for 3 minutes and then electrophoresed on a 20% polyacrylamide-7 M urea gel. The transcripts were analyzed with a bio-imaging analyzer.

T7 RNA polymerase [3] = biological target: T1, T7 RNA polymerase; details: RNA 17-mer transcript, RNase T2 digest, [α-32P]ATP
Description: The same T7 RNA polymerase-mediated transcription reaction as shown in Example 11 was performed in a reaction solution containing 40 mM Tris-HCl buffer (pH 8.0), 24 mM MgCl2, 2 mM spermidine, 5 mM DTT, 0.01% Triton X-100, 2 μCi [α-^32P]ATP, 1 mM NTPs, 1 mM modified-yTP, 2 μM template DNA, and 50 units of T7 RNA polymerase (Takara). After electrophoresis on a 15% polyacrylamide-7 M urea gel, the transcript was eluted from the gel and collected by ethanol precipitation in the presence of tRNA (0.25 OD).
To this tRNA-containing solution (8.5 μl), RNase T2 (1.5 μl, 1 unit/μl) was added and reacted overnight at 37° C. 0.3 μl of this solution was spotted on a TLC plate (Merck, 10 cm×10 cm) and developed two-dimensionally. As a developing solution, isobutyric acid:concentrated aqueous ammonia:water=66:1:33 (v/v/v) was used for the first dimension and 2-propanol:hydrochloric acid:water=65:10:25 (v/v/v) was used for the second dimension. The developed spots were detected and analyzed with a bio-imaging analyzer.

[4] = 1.0 μM in 10 mM sodium phosphate buffer (pH 7.0), 25° C.

Row | Absorption maxima [1, 4] | Emission maxima [1] | Structure (SMILES) | ε at absorption maximum [1, 4] | Quantum yield [1] | yield of RNA incorporating the modified substrate (T7 RNA polymerase [2]) | incorporation opposite v in the template (T7 RNA polymerase [3]) | Absorption maxima ([1]; pH 7) | ε at absorption maximum ([1]; pH 7)
1 |  |  | NCCCCCC(=O)NCC#Cc1c[nH]c(=O)c([C@@H]2O[C@H](COP(=O)(O)OP(=O)(O)OP(=O)(O)O)[C@@H](O)[C@H]2O)c1 [NH2-yTP, 3-(β-D-ribofuranosyl)-5-[3-(6-aminohexanamido)-1-propynyl]-2-oxo(1H)pyridine 5′-triphosphate] |  |  | same yield | specific incorporation |  | 
2 | 493 nm | 521 (excited at 493 nm) | O=C(NCC#Cc1c[nH]c(=O)c([C@@H]2O[C@H](COP(=O)(O)OP(=O)(O)OP(=O)(O)O)[C@@H](O)[C@H]2O)c1)c1ccc2c(c1)C(=O)OC21c2ccc(O)cc2Oc2cc(O)ccc21 [short FAM-yTP, 3-(β-D-ribofuranosyl)-5-[3-(fluorescein-5-carboxamido)-1-propynyl]-2-oxo(1H)pyridine 5′-triphosphate] | 70,000 | 0.67 |  |  |  | 
3 | 319 nm and 252 nm | 387 nm and 541 nm | CN(C)c1cccc2c(S(=O)(=O)NCCCCCC(=O)NCCCCCC(=O)NCC#Cc3c[nH]c(=O)c([C@@H]4O[C@H](COP(=O)(O)OP(=O)(O)OP(=O)(O)O)[C@@H](O)[C@H]4O)c3)cccc12 [Dansyl-x-yTP, 3-(β-D-ribofuranosyl)-5-[3-[6-[6-[(5-dimethylaminonaphthalene-1-sulfonyl)amino]hexanamido]hexanamido]-1-propynyl]-2-oxo(1H)pyridine 5′-triphosphate] |  | 0.014 |  |  |  | 
4 |  |  | CN(C)c1ccc2c(-c3cc(C(=O)NCCCCCC(=O)NCC#Cc4c[nH]c(=O)c([C@@H]5O[C@H](COP(=O)(O)OP(=O)(O)OP(=O)(O)O)[C@@H](O)[C@H]5O)c4)ccc3C(=O)[O-])c3ccc(N(C)C)cc3[o+]c2c1 [TAMRA-yTP, 3-(β-D-ribofuranosyl)-5-[3-[6-(tetramethylrhodamine-5-carboxamido)hexanamido]-1-propynyl]-2-oxo(1H)pyridine 5′-triphosphate] |  | 0.50 | 61% |  | 553 nm and 553 (ε 85,000) nm | 553 (ε 85,000)

Row | Structure (SMILES) | Absorption maxima [1, 4] | Emission maxima [1] | ε at absorption maximum [1, 4] | Quantum yield [1] | yield of RNA incorporating the modified substrate (T7 RNA polymerase [2]) | incorporation opposite v in the template (T7 RNA polymerase [3]) | Absorption maxima ([1]; pH 7) | ε at absorption maximum ([1]; pH 7)
5 | O=C(CCCCCNC(=O)c1ccc2c(c1)C(=O)OC21c2ccc(O)cc2Oc2cc(O)ccc21)NCC#Cc1c[nH]c(=O)c([C@@H]2O[C@H](COP(=O)(O)OP(=O)(O)OP(=O)(O)O)[C@@H](O)[C@H]2O)c1 [FAM-yTP, 3-(β-D-ribofuranosyl)-5-[3-[6-(fluorescein-5-carboxamido)hexanamido]-1-propynyl]-2-oxo(1H)pyridine 5′-triphosphate] | 493 nm |  | 62,000 | 0.55 | 76% |  |  | 
